# Data reported in patent US6444434B1, “FVIIa/TF activity inhibiting compounds” (Novo Nordisk A/S, priority 1999, dated 2002).
# Like-named read-outs stand apart in the source and are kept apart here.
# Legend:
# FXa = FXa (Homo sapiens, UniProt P00742); assay: FXa amidolytic assay; format: biochemical; conditions: 1 nM FXa, 1 mM S-2765; read-out: FX amidolytic IC50 FX
# Method: (§1) Compound solutions and buffer are the same as in the above FX activation assay. 170 microliters of FXa (1.17 nM in buffer), 10 microliters of test compound (various concentrations in DMSO) and 20 microliters of substrate S-2765 (10 mM in water) is mixed in a microtiter plate well. This gives-final concentrations of FXa and S-2765 of 1 nM and 1 mM, respectively. The absorbance at 405 nm is measured continuously for 20 minutes. The degree of inhibition is calculated from the slope of the absorbance curve compared to the curve obtained when using DMSO without test compound.
# as §1, with “gives final” for “gives-final”
# [1] = biological target: T1, FVIIa/TF-catalyzed activation of FX (Homo sapiens, UniProt P08709); assay: FX activation assay (FVIIa/TF-catalyzed FX activation); format: biochemical
# T1 construct: Single-chain FVII may be converted to two-chain FVIIa by factor Xa
# T1 sequence (P13726 33-295, one chain of several, further chain): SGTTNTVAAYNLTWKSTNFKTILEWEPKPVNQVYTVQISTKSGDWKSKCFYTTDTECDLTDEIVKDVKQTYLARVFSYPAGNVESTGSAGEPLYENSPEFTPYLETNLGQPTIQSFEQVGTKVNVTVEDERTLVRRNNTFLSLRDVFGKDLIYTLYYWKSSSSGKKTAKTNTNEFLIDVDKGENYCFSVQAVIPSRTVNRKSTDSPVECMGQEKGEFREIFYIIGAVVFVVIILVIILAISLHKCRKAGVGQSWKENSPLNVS
# [2] = test system: citrated normal human plasma; assay: FVIIa/TF-initiated plasma clotting assay; conditions: ratio of clotting time with/without compound; final compound concentration 0.33 mM; thromboplastin (Innovin)
# Method: The test compounds, 20 mM in DMSO, are diluted in citrated normal human plasma just before the analysis (1+19) and placed in the sample carousel. 55 μl sample (compound in plasma) is mixed with 55 μl of thromboplastin (Innovin, Dade) and incubated for 5 min. The clotting reaction is started by adding 55 μl of a 25-mM CaCl2 solution, yielding a final compound concentration of 0.33 mM. The clotting time is measured using an ACL 300 R coagulometer. The ratio between the clotting time in the presence and absence of test compound is used to quantify the anticoagulant efficiency.
# TF/FVIIa = biological target: T2, TF/FVIIa (Homo sapiens, UniProt P08709); assay: FVIIa/TF amidolytic assay; format: biochemical; conditions: 10 nM FVIIa, 25 nM soluble TF, 1 mM S-2288
# T2 construct: Single-chain FVII may be converted to two-chain FVIIa by factor Xa; 20 microliters of soluble TF (250 nM in buffer)
# T2 sequence (P08709 61-212 limits assumed): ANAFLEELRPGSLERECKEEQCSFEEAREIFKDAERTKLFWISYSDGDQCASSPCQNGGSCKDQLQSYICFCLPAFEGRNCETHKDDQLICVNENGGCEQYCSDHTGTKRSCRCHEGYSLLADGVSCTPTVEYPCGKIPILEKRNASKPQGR
# T2 sequence (P08709 213-466 limits assumed): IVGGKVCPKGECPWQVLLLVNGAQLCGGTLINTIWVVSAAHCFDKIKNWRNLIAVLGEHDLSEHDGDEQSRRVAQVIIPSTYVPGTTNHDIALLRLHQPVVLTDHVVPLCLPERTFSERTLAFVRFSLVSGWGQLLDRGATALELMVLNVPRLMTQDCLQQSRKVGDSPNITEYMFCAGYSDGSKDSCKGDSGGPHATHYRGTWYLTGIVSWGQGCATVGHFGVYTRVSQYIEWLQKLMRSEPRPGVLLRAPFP
# Method: (§2) Compound solutions and buffer are the same as in the above FX activation assay. 150 microliters of FVIIa (13.3 nM in buffer), 20 microliters of soluble TF. (250 nM in buffer), 10 microliters of test compound (various concentrations in DMSO) and 20 microliters of substrate S-2288 (10 mM in water) is mixed in microtiter plate well. This gives final concentrations of FVII(a, TF and S-2288 of 10 nM, 25 nM and 1 mM, respectively. The absorbance at 405 nm is measured continuously for 20 minutes. The degree of inhibition is calculated from the slope of the absorbance curve compared to the curve obtained when using DMSO without test compound.
# as §2, with “TF” for “TF.”, “DM80)” for “DMSO)”, “FVIIa,” for “FVII(a,”
# [3] = biological target: T3, FVIIa/TF-catalyzed activation of FX (Homo sapiens, UniProt P08709+P13726); assay: FX activation assay (FVIIa/TF-catalyzed FX activation); format: biochemical; conditions: second part of table, Examples 14-22
# T3 construct: Single-chain FVII may be converted to two-chain FVIIa by factor Xa
# T3 sequence (P13726 33-295, one chain of several): as the sequence (P13726 33-295, one chain of several, further chain) above
# [4] = 100 pM FVIIa, 5 pM TF, 175 nM FX, FXa read with S-2765, read-out: TF/FVII/FX (FX activation) IC50 FXa
# [5] = second part of table, Examples 14-22, read-out: IC50 (μM) FX activation by FVIIa/TF
# Chain of FXa (P00742 41-179 limits assumed): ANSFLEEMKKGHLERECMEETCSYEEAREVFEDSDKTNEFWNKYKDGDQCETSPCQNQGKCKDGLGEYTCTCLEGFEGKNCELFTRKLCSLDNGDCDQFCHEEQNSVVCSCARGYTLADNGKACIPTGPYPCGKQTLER
# Chain of FXa (P00742 235-488 limits assumed): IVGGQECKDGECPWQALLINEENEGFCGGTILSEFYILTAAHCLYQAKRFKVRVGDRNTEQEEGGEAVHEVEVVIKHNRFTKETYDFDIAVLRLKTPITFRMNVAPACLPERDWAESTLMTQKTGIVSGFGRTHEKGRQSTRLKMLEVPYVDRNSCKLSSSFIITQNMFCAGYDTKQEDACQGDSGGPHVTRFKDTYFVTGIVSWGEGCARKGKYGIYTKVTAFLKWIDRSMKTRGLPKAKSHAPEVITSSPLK
SMILES,IC50 (FXa) [µM],"IC50 [1, 4] [µM]",IC50 (TF/FVIIa) [µM],"IC50 [1, 5] [µM]",Clot ratio [2],IC50 [3] [µM]
"N=c1n(CCN2CCCC2)c2ccccc2n1CC(O)COc1ccc(Cl)cc1 (stereo not drawn) [Example 5, 1-(4-Chloro-phenoxy)-3-[2-imino-3-(2-pyrrolidin-1-yl-ethyl)-2,3-dihydro-benzoimidazol-1-yl]-propan-2-ol]",> 200,18,> 200,–,>3,–
"CN(C)CCNCC(O)CN1CCn2c3c(c4cc(C5CCCCC5)ccc42)CCCC31 (stereo not drawn) [Example 6, 1-(8-Cyclohexyl-1,2,3a,4,5,6-hexahydro-pyrazino[3,2,1-jk]carbazol-3-yl)-3-(2-dimethylamino-ethylamino)-propan-2-ol]",> 200,17,> 200,–,>3,–
"CN1CCN(CC(=O)N2CCn3c4c(c5cc(C6CCCCC6)ccc53)CCCC42)CC1 (stereo not drawn) [Example 8, 1-(8-Cyclohexyl-1,2,3a,4,5,6-hexahydro-pyrazino[3,2,1-jk]carbazol-3-yl)-2-(4-methyl-piperazin-1-yl)-ethanone]",> 200,14,> 200,–,2.72,–
"CCCCCCCCCCCCCCCCn1c2c(c(=N)c3c1CCC3)CCC2 [Example 10, 4-Hexadecyl-2,3,4,5,6,7-hexahydro-1H-4-aza-s-indacen-8-ylideneamine]",> 200,7.7,> 200,–,2.84,–
"CCC(=C(c1ccc(OC)cc1)c1ccc(OC)cc1)c1cn(CC(O)CN2CCCC2)c2ccccc12 (stereo not drawn) [Example 11, 1-{3-[1-Ethyl-2,2-bis-(4-methoxy-phenyl)-vinyl]-indol-1-yl}-3-pyrrolidin-1-yl-propan-2-ol]",> 200,7.7,> 200,–,1.64,–
"CCCCCCCOc1ccc(/C(=N\C2CC(C)(C)NC(C)(C)C2)c2ccccc2)cc1 [Example 13, [(4-Heptyloxy-phenyl)-phenyl-methylene]-(2,2,6,6-tetramethylpiperidin-4-yl)-amine]",> 200,5.8,> 200,–,2.06,–
"CN(C)C1CCN(Cc2c[nH]c3ccc(OCc4ccccc4)cc23)CC1 [Example 18, N-[5-benzyloxy-1H-indol-3-ylmethyl]-4-dimethylaminopiperidine]",–,–,–,< 20,–,–
"NC(CC(=O)NC(Cc1c[nH]c2ccccc12)C(=O)O)(P(=O)(O)O)P(=O)(O)O (stereo not drawn) [Example 19, 2-(3-amino-3,3-bis-phosphono-propionylamino)-3-(1H-indol-3-yl)-propionic acid]",–,–,–,< 20,–,–
"CN(C)CCc1cn(Cc2ccc(Cl)c(Cl)c2)c2cc(Cl)c(OCc3ccccc3)cc12 [Example 21, N,N-dimethyl-1-(3,4-dichlorobenzyl)-5-benzyloxy-6-chlorotrypamine]",–,–,–,–,–,< 20

# Second part, led by results:
IC50 (FXa) [µM],"IC50 [1, 4] [µM]",IC50 (TF/FVIIa) [µM],"IC50 [1, 5] [µM]",SMILES,Clot ratio [2],IC50 [3] [µM]
> 200,17,> 200,–,"COc1cccc(/C=N\Nc2nc(Nc3ccccc3)nc(Nc3ccc(C)cc3C)n2)c1O [Example 7, 2-{[4-(2,4-Dimethyl-phenylamino)-6-phenylamino-[1,3,5]triazin-2-yl]-hydrazonomethyl}-6-methoxy-phenol]",1.03,–
> 200,11,> 200,–,"CC(C)Cc1ccc(C(C)CNC(=N)C(C)c2ccc(CC(C)C)cc2)cc1 (stereo not drawn) [Example 9, 2-(4-Isobutyl-phenyl)-N-[2-(4-isobutyl-phenyl)-propyl]-propionamidine]",>3,–
> 200,7,> 200,–,"COc1ccc(/C=C2\c3ccccc3-c3ccc(C(=O)CCCCN4CCCCC4)cc32)cc1OC [Example 12, 1-[9-(3,4-Dimethoxy-benzylidene)-9H-fluoren-2-yl]-5-piperidin-1-yl-pentan-1-one]",1.2,–
–,–,–,< 20,"CCN(CC)CCCC(C)Nc1nc(/C=C/C=C/c2ccccc2)nc2cc(Cl)ccc12 (stereo not drawn) [Example 14, N-[7-chloro-2-(4-phenyl-buta-1,3-dienyl)-quinazolin-4-yl]-5-N,N-diethyl-aminopentane-2-amine]",–,–
–,–,–,< 20,"CCN(CC)CCCC(C)Nc1nc(C=Cc2ccc(Br)cc2Br)nc2cc(Cl)ccc12 (stereo not drawn) [Example 15, N4-{7-chloro-2-[2-(2,4-dibromo-phenyl)-vinyl]-quinazolin-4-yl}-N1,N1-diethyl-pentane-1,4-diamine]",–,–
–,–,–,< 20,"CCN(CC)CCCC(C)Nc1nc(/C=C/c2ccc(Br)cc2)nc2cc(Cl)ccc12 (stereo not drawn) [Example 16, N4-{2-[2-(4-bromo-phenyl)-vinyl]-7-chloro-quinazolin-4-yl}-N1,N1-diethyl-pentane-1,4-diamine]",–,–
–,–,–,< 20,"CN(C)CCCN(C)Cc1cn(Cc2ccc(Cl)c(Cl)c2)c2cc(Cl)c(OCc3ccccc3)cc12 [Example 17, N-[5-benzyloxy-6-chloro-1-(3,4-dichlorobenzyl)-1H-indol-3-ylmethyl]-N,N′N′-trimethylpropan-1,3-diamine]",–,–
–,–,–,< 20,CN(C)CCCNC(=O)c1cc2cc(OCc3ccccc3)ccc2n1Cc1ccc(Cl)c(Cl)c1 [Example 20],–,–
–,–,–,< 20,"CCC(=C(c1ccc(OC)cc1)c1ccc(OC)cc1)c1cn(CC(O)CN2CCCC2)c2ccccc12 (stereo not drawn) [Example 22, 1-{3-[1-ethyl-2,2-bis-(4-methoxy-phenyl)-vinyl]-indol-1-yl}-3-pyrrolidin-1-yl-propan-2-ol]",–,–
